Data set [1] concerns the target T1, human calcitonin receptor (hCTR) (Homo sapiens, UniProt P30988).
T1 sequence (P30988 25-474): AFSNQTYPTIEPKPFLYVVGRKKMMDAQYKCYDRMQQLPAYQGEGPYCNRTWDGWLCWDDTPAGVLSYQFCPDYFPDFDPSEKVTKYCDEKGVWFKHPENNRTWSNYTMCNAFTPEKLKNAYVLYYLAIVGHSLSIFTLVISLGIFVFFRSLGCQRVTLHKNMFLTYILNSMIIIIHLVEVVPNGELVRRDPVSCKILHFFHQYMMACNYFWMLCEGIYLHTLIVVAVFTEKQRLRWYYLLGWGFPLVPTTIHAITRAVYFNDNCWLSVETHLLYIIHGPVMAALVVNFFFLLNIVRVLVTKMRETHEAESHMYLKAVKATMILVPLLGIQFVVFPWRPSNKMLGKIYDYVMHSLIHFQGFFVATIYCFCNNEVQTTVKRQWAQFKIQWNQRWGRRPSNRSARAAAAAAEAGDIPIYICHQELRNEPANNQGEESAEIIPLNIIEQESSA
Put plainly: cAMP accumulation functional assay in HEK293-CNG cells expressing hCTR. It counts as cell-based.

Data set [2] concerns the target human amylin 3 receptor (hAMY3R) (Homo sapiens, UniProt O60896+P30988). Put plainly: cAMP accumulation functional assay in HEK293-CNG cells expressing hAMY3R. It counts as cell-based. Here is the method: In the presence of the non-specific cAMP/cGMP phosphodiesterase inhibitor 3-isobutyl-1-methylxanthine (IBMX), accumulating cAMP can be measured in vitro using common detection methods. Thus, it is possible to estimate an in vitro potency (pEC50) for peptides activating each of these receptors using fit dose-response curves for cAMP accumulation.
Cells were carried in growth media for no more than 10 passages prior to testing.
Peptides were serially diluted in the same buffer as above for each given assay condition. Two assay control solutions consisting of 50 mcM forskolin (cAMP system maximum) or assay buffer only (cAMP system minimum) were also prepared in the appropriate stimulation buffers. Five microliters of each peptide-concentration, or assay control was added to triplicate wells and incubated for thirty minutes at room temperature. During this incubation step a 4× europium labelled cAMP tracer solution and a 4× Ulight®-anti-cAMP solution (consisting of an anti-cAMP monoclonal antibody labelled with Ulight™ dye) was prepared according to the manufacturer's protocol (PerkinElmer LANCE Ultra cAMP kit). Following this incubation, 5 mcL europium labelled cAMP and 5 mcL Ulight anti-cAMP antibody was added to wells. The plate was covered with an adhesive cover to prevent evaporation and incubated for 60 minutes at room temperature in the dark. Plates were read on an Envision fluorescent plate reader (PerkinElmer).
Test values were first normalized to the forskolin induced cAMP system maximum and system minimum averaged values in Excel using the formula: (test value−system minavg)/(system maxavg−system minavg)*100. Normalized test values represent a baseline corrected percentage of the system maximum cAMP response induced by forskolin. Normalized data was analyzed from triplicate tests and used to estimate the EC50 for each peptide on each receptor. Data was fit in GraphPad Prism software (v7.04) using a 4-parameter logistic curve model: Y=Bottom+(Top−Bottom)/(1+10^((Log EC50−X))). The Hill slope was constrained to 1.0. EC50 values were converted to pEC50 values using the formula: pEC50=−Log (EC50).

The next data set can be described thus: in vivo. To be noted: rat, iv, 0.033 mg/kg. Set-up: species or system Sprague-Dawley rats. In outline: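 Male Sprague-Dawley rats, non-fasted (n=3), given peptide in saline as 1-h IV or SC infusion at 0.033 mg/kg, or SC bolus at 0.3 mg/kg; jugular blood to 48 h into K2EDTA plus protease inhibitors. Plasma extracted by precipitation or WCX solid-phase extraction, quantified by UPLC-MS/MS against standards in matching rat plasma.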

Data set [3] is described as follows: Acute food intake inhibition after SC bolus injection (BioDAQ). Particulars: 0-24 hr after acute SC dosing; Long Evans rats on 45% high fat diet.
Data set [4] is described as follows: Solubility of amylin analog polypeptides (visual inspection, room temperature). It counts as physicochemical. To be noted: Solubility. Here is the method:
The analog polypeptides described herein were tested for solubility in saline 20% DMSO in water (i.e., bioassay buffer) or in aqueous (DI water) at room temperature. Samples were visually inspected for clarity of the sample, any appearance of turbidity or haziness.

Converted amounts (≈) assume the structure as drawn. Like-named read-outs stand apart in the source and are kept apart here. Starred links: 1 amine or outer side, 2 acyl side, 3 side chain; linkers in the order of their positions; H or OH if unused. Positions of bridges follow the written chain, without caps; N, C: chain ends. Non-standard residues stand in square brackets, D forms with d. Residues, ends and D or L forms follow the SMILES beside them. Groups on a side chain read outwards from the residue. *: point of attachment. γGlu = O=C(O)[C@H](CCC(=O)[*:2])N[*:1]; Palmitoyl = CCCCCCCCCCCCCCCC(=O)*; AEEA = NCCOCCOCC(=O)O

Chain of human amylin 3 receptor (hAMY3R) (O60896 24-148, one chain of several): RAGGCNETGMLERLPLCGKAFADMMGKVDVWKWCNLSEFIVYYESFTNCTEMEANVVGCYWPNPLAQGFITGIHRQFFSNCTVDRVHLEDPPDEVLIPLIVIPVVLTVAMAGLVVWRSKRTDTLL

For `CCCCCCCCCCCCCCCC(=O)N[C@@H](CCC(=O)N[C@@H](CCC(=O)N[C@@H](CCC(=O)N[C@@H](CCC(=O)NCCOCCOCC(=O)NCCOCCOCC(=O)N[C@@H](CCC(=O)NCCCC[C@H](NC(=O)[C@H](CCC(=O)O)NC(=O)[C@H](CC(N)=O)NC(=O)[C@H](C)NC(=O)[C@H](CC(C)C)NC(=O)[C@H](CCCNC(=N)N)NC(=O)[C@H](CCC(N)=O)NC(=O)[C@@H](NC(=O)[C@H](C)NC(=O)[C@@H]1CSSC[C@H](NC(=O)[C@@H](N)CO)C(=O)N[C@@H](CC(N)=O)C(=O)N[C@@H]([C@@H](C)O)C(=O)N[C@@H](CO)C(=O)N[C@@H]([C@@H](C)O)C(=O)N1)[C@@H](C)O)C(=O)N[C@@H](Cc1c[nH]cn1)C(=O)N[C@@H](CCCCN)C(=O)N[C@@H](CO)C(=O)N[C@@H](CO)C(=O)N[C@@H](CC(N)=O)C(=O)N[C@@H](CC(N)=O)C(=O)N[C@@H](Cc1ccccc1)C(=O)NCC(=O)N1CCC[C@H]1C(=O)N[C@H](C(=O)N[C@@H](CC(C)C)C(=O)N1CCC[C@H]1C(=O)N1CCC[C@H]1C(=O)N[C@H](C(=O)N[C@@H](CCCCN)C(=O)N[C@H](C(=O)NCC(=O)N[C@@H](CO)C(=O)N[C@@H](CCC(=O)O)C(=O)N[C@H](C(=O)N[C@@H](Cc1ccc(O)cc1)C(N)=O)[C@@H](C)O)C(C)C)[C@@H](C)O)[C@@H](C)CC)C(=O)O)C(=O)O)C(=O)O)C(=O)O)C(=O)O` [Compound A5] (H-SCNTSTCATQRLANEK([γGlu-AEEA-AEEA-γGlu-γGlu-γGlu-γGlu-Palmitoyl])HKSSNNFGPILPPTKVGSETY-NH2; disulfide 2-7; N-terminus assumed), the EC50 in data set [1] (hCTR 0% HSA, 0% HSA, read-out: pEC50 hCTR 0% HSA (converted)) was 15.8 pM; in data set [1] (hCTR 0.1% HSA, 0.1% HSA) it was 316 pM; in data set [1] (hCTR 4% HSA, 4% HSA, read-out: pEC50 hCTR 4% HSA (converted)), 15800 pM; in data set [2] (4% HSA, read-out: pEC50 hAMY3R 4% HSA (converted)), 631 pM; in data set [2] (pEC50 hAMY3R 0.1% HSA, 0.1% HSA), 15.8 pM. Moreover, the Vd in the data set “in vivo” is 0.137 L/kg. For the same molecule, the clearance in “in vivo” turned out to be 0.135 mL/min/kg. In the data set “in vivo”, this molecule gave a half-life of 15 h. In data set [3], the “Acute Food Intake % Inhibition vs vehicle” value was found to be 37%.

In “in vivo”, `CCCCCCCCCCCCCCCC(=O)N[C@@H](CCC(=O)N[C@@H](CCC(=O)N[C@@H](CCC(=O)N[C@@H](CCC(=O)NCCCC[C@@H](NC(=O)[C@H](CCC(=O)O)NC(=O)[C@H](CC(N)=O)NC(=O)[C@H](C)NC(=O)[C@H](CC(C)C)NC(=O)[C@H](CCCNC(=N)N)NC(=O)[C@H](CCC(N)=O)NC(=O)[C@@H](NC(=O)[C@H](C)NC(=O)[C@@H]1CSSC[C@H](NC(=O)[C@@H](N)CO)C(=O)N[C@@H](CC(N)=O)C(=O)N[C@@H]([C@@H](C)O)C(=O)N[C@@H](CO)C(=O)N[C@@H]([C@@H](C)O)C(=O)N1)[C@@H](C)O)C(=O)N[C@@H](Cc1c[nH]cn1)C(=O)N[C@@H](CCCCN)C(=O)N[C@@H](CO)C(=O)N[C@@H](CO)C(=O)N[C@@H](CC(N)=O)C(=O)N[C@@H](CC(N)=O)C(=O)N[C@@H](Cc1ccccc1)C(=O)NCC(=O)N1CCC[C@H]1C(=O)N[C@H](C(=O)N[C@@H](CC(C)C)C(=O)N1CCC[C@H]1C(=O)N1CCC[C@H]1C(=O)N[C@H](C(=O)N[C@@H](CCCCN)C(=O)N[C@H](C(=O)NCC(=O)N[C@@H](CO)C(=O)N[C@@H](CCC(=O)O)C(=O)N[C@H](C(=O)N[C@@H](Cc1ccc(O)cc1)C(N)=O)[C@@H](C)O)C(C)C)[C@@H](C)O)[C@@H](C)CC)C(=O)O)C(=O)O)C(=O)O)C(=O)O` [Compound A66] (H-SCNTSTCATQRLANE[dK]([γGlu-γGlu-γGlu-γGlu-Palmitoyl])HKSSNNFGPILPPTKVGSETY-NH2; disulfide 2-7) had a Vd of 0.194 L/kg, a clearance of 0.259 mL/min/kg and a half-life of 9.59 h. This molecule also registered a solubility in data set [4] of 78.3 mg/mL (≈ 16.5 mM).

The values are drawn from US12018059B2, “Human amylin analog polypeptides and methods of use” (Intarcia Therapeutics, Inc., priority 2018, dated 2024).
